This test deals with T1, human CGT (Homo sapiens, UniProt Q16880).
T1 sequence (Q16880 21-541): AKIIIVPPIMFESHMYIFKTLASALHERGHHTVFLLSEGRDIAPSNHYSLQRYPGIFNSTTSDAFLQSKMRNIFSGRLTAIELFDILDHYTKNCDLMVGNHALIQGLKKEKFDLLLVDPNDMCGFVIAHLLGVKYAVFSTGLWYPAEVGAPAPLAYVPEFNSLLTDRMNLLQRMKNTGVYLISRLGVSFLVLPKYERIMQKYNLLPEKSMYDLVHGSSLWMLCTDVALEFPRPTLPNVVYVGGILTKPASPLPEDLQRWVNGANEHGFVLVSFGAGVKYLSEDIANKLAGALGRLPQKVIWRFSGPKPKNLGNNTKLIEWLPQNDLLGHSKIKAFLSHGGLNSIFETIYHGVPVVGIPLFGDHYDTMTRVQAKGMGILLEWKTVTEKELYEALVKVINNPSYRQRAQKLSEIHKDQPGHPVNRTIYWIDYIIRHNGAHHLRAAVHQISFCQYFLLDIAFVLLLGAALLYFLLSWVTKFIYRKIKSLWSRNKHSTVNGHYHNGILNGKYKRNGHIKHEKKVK
The experiment in a line: CGT Enzyme Assay (Biological Example 2, RapidFire/MS/MS method with 0.01% Tween 80 added). The following applies: enzymatic assay, CHO/CGT lysate. Format: biochemical. On the procedure:
Full-length human CGT cDNA was cloned into the BamH1/Xho1 site of pcDNA3.1 (+) mammalian expression vector (V90-20, Invitrogen, Carlsbad, Calif.) and the plasmid was transfected into Chinese hamster ovary (CHO) cells. Lysate was prepared using M-PER (Mammalian Protein Extraction Reagent, ThermoFisher Scientific, Grand Island, N.Y.) in the presence of a protease inhibitor cocktail (P8340, Sigma, Saint Louis, Mo.). Each 100 mm dish (100% confluent, approximately 1×10^7 cells) was lysed with 250 μL of M-PER containing protease inhibitors. Protein concentration was determined using a Pierce BCA protein assay kit (ThermoFisher Scientific). […] The final concentration of DMSO was 0.5% in both compound-treated and mock-treated samples. Each individual reaction was diluted with 80 μL of methanol:acetronitrile (1:3) containing 5 μM N-docdecanoyl-NBD-galactosylceramide (internal standard) to stop the reaction. 200 μL H2O:acetonitile (1:1) was added to precipitate the protein. After sufficient mixing, the plates were centrifuged at 2469 g for 38 minutes, 200 μl of supernatant was transferred to a LC-MS 96-deep well plate and a second spin was performed at 2469 g for 10 minutes. The final supernatant was injected in triplicate for RapidFire/MS/MS analysis.
The quantitative analysis of C6-NBD-dihydro-ceramide and C6-NBD-dihydro-galactosylceramide was performed on a Rapid Fire 360 high-throughput mass spectrometry system (Agilent Technologies, Palo Alto, Calif.) coupled with a API4000^+ triple quadrupole mass spectrometer (Applied Biosystems, Concord, Ontario, Canada). RapidFire software packages, including RapidFire Control panel, RapidFire UI and RapidFire Integrator (Agilent Technologies), were used to control the RapidFire instrument and to process data. Analyst 1.6.2 software packages (Applied Biosystems) were used to control the MS system and acquire MS data. 10 μL of sample was loaded on a micro-scale C4 solid-phase extraction (SPE) cartridge (Agilent Technologies) and salts were removed using water supplemented with 0.1% formic acid at the flow rate of 1.5 mL/min for 3 sec. C6-NBD-dihydro-ceramide and C6-NBD-dihydro-galactosylceramide were co-eluted into the mass spectrometer using acetonitrile containing 0.1% formic acid at the flow rate of 1.0 mL/min for 3 sec. The total cycle time of one injection was 8 secs. The MS/MS detection was performed in ESI negative mode.
The C6-NBD-dihydro-galactosylceramide reading was normalized first by dividing the peak area of C6-NBD-dihydro-galactosylceramide by the peak area of the internal standard, N-docdecanoyl-NBD-galactosylceramide.

As a reminder, the IC50 is the concentration at which inhibition is half-maximal. With `C[C@H]1[C@H](c2cccc(OC(F)(F)F)c2)N(c2ccc(Br)cc2)C(=O)N1c1ccc(Br)cc1` [Example 11-2, (4S,5S)-1,3-bis(4-bromophenyl)-4-methyl-5-(3-(trifluoromethoxy)phenyl)imidazolidin-2-one], the concentration for half-maximal inhibition (IC50) was < 1 µM.

Compound `Cc1ccc(N2C(=O)N(c3ccc(C#N)cc3)C3(COC3)[C@H]2c2cccc(C#N)c2)cc1` [Example 57-1, (R)-3-(5-(4-cyanophenyl)-6-oxo-7-(p-tolyl)-2-oxa-5,7-diazaspiro[3.4]octan-8-yl)benzonitrile] showed an IC50 of 10 to 30 µM.

`C[C@@]1(C(F)(F)F)[C@H](c2cccc(OC(F)(F)F)c2)N(c2ccc(C#N)cc2)C(=O)N1c1ccc(C#N)cc1` [Example 39-1, 4,4′-((4S,5S)-4-methyl-2-oxo-5-(3-(trifluoromethoxy)phenyl)-4-(trifluoromethyl)imidazolidine-1,3-diyl)dibenzonitrile]: the IC50 was < 1 µM.

In the case of `O=C1N(c2ccc(Cl)cc2)[C@@H]2CCC[C@]2(c2cccc(OC(F)F)c2)N1c1ccc(Cl)cc1` [Example 23-2, (3aR,6aR)-1,3-bis(4-chlorophenyl)-3a-(3-(difluoromethoxy)phenyl)hexahydrocyclopenta[d]imidazol-2(1H)-one], the IC50 lay in the range of 10 to 30 µM.

In turn, `N#Cc1ccc(N2C(=O)N(c3ccc(C#N)cc3)C3(COC3)[C@H]2c2cccc(OC(F)(F)F)c2)cc1` [Example 36-1] returned an IC50 of 10 to 30 µM.

Compound `C[C@@H]1[C@@H](c2cccc(OC(F)(F)F)c2)N(c2ccc(Cl)cc2)C(=O)N1c1ccc(Cl)cc1` [Example 4-2, (4R,5R)-1,3-bis(4-chlorophenyl)-4-methyl-5-(3-(trifluoromethoxy)phenyl)imidazolidin-2-one] yielded an IC50 of 10 to 30 µM.

For the compound `CC[C@]1(C)[C@H](c2cccc(OC(F)(F)F)c2)N(c2ccc(C#N)cc2)C(=O)N1c1ccc(C#N)cc1` [Example 51-2, 4,4′-((4R,5S)-4-ethyl-4-methyl-2-oxo-5-(3-(trifluoromethoxy)phenyl)imidazolidine-1,3-diyl)dibenzonitrile], the IC50 was < 1 µM.

With `CCC[C@]1(C)[C@@H](c2cccc(OC(F)(F)F)c2)N(c2ccc(C#N)cc2)C(=O)N1c1ccc(C#N)cc1` [Example 52-3, 4,4′-((4R,5R)-4-methyl-2-oxo-4-propyl-5-(3-(trifluoromethoxy)phenyl)imidazolidine-1,3-diyl)dibenzonitrile], the half-maximal inhibitory concentration (IC50) fell in the range of 1 to 10 µM.

For the compound `CC1(C)[C@H](c2cccc(OC(F)(F)F)c2)N(c2ccc(Cl)cc2)C(=O)N1c1ccc(Cl)cc1` [Example 7-2, (S)-1,3-bis(4-chlorophenyl)-4,4-dimethyl-5-(3-(trifluoromethoxy)phenyl)imidazolidin-2-one], the IC50 is < 1 µM.

For the compound `CCC[C@]1(C)[C@H](c2cccc(C#N)c2)N(c2ccc(Cl)cc2)C(=O)N1c1ccc(Cl)cc1` [Example 33-3, 3-((4S,5R)-1,3-bis(4-chlorophenyl)-5-methyl-2-oxo-5-propylimidazolidin-4-yl)benzonitrile], the IC50 is 1 to 10 µM.

`Cc1ccc(N2C(=O)N(c3ccc(C#N)cc3)C3(COC3)[C@H]2c2cccc(OC(F)(F)F)c2)cc1` [Example 43-1, (R)-4-(6-oxo-7-(p-tolyl)-8-(3-(trifluoromethoxy)phenyl)-2-oxa-5,7-diazaspiro[3.4]octan-5-yl)benzonitrile]: the IC50 is 1 to 10 µM.

`CC1(C)[C@H](c2cccc(OC(F)F)c2)N(c2ccc(Cl)cc2)C(=O)N1c1ccc(Cl)cc1` [Example 9-2, (S)-1,3-bis(4-chlorophenyl)-5-(3-(difluoromethoxy)phenyl)-4,4-dimethylimidazolidin-2-one]: the IC50 was < 1 µM.

`CC1(C)[C@@H](c2cccc(C#N)c2)N(c2ccc(C(F)(F)F)cc2)C(=O)N1c1ccc(C(F)(F)F)cc1` [Example 24-1, (R)-3-(5,5-dimethyl-2-oxo-1,3-bis(4-(trifluoromethyl)phenyl)imidazolidin-4-yl)benzonitrile]: the IC50 was < 1 µM.

For `N#Cc1ccc(N2C(=O)N(c3ccc(C#N)cc3)C3(COC3)[C@@H]2c2cccc(OC(F)(F)F)c2)cc1` [Example 36-2], the IC50 was < 1 µM.

Turning to `Cc1ccc(N2C(=O)N(c3ccc(C#N)cc3)[C@H](c3cccc(C#N)c3)C23COC3)cc1` [Example 55-1, (R)-3-(7-(4-cyanophenyl)-6-oxo-5-(p-tolyl)-2-oxa-5,7-diazaspiro[3.4]octan-8-yl)benzonitrile], the IC50 is 10 to 30 µM.

For `O=C1N(c2ccc(Cl)cc2)C2CCCC2(c2cccc(O)c2)N1c1ccc(Cl)cc1` (stereo not drawn) [Example 18], the IC50 was 10 to 30 µM.

As for `Cc1ccc(N2C(=O)N(c3ccc(C#N)cc3)[C@@H](c3cccc(C#N)c3)C2(C)C)cc1` [Example 48-2, (S)-3-(3-(4-cyanophenyl)-5,5-dimethyl-2-oxo-1-(p-tolyl)imidazolidin-4-yl)benzonitrile], the IC50 was < 1 µM.

`Cc1ccc(N2C(=O)N(c3ccc(Cl)cc3)[C@@H](c3cccc(OC(F)(F)F)c3)C23COC3)cc1` [Example 49-2]: the IC50 is < 1 µM.

`CC1(C)[C@@H](c2cccc(OC(F)(F)F)c2)N(c2ccc(Cl)cc2)C(=O)N1c1ccc(Cl)cc1` [Example 7-1, (R)-1,3-bis(4-chlorophenyl)-4,4-dimethyl-5-(3-(trifluoromethoxy)phenyl)imidazolidin-2-one] displayed a half-maximal inhibitory concentration (IC50) of 1 to 10 µM.

For the compound `C[C@H]1[C@H](c2cccc(C#N)c2)N(c2ccc(Cl)cc2)C(=O)N1c1ccc(Cl)cc1` [Example 5-2, 3-((4S,5S)-1,3-bis(4-chlorophenyl)-5-methyl-2-oxoimidazolidin-4-yl)benzonitrile], the IC50 fell in the range of 10 to 30 µM.

For `CC1(C)[C@H](c2cccc(OC(F)(F)F)c2)N(c2ccc(C#N)cc2)C(=O)N1c1ccc(Cl)cc1` [Example 40-2, (S)-4-(3-(4-chlorophenyl)-4,4-dimethyl-2-oxo-5-(3-(trifluoromethoxy)phenyl)imidazolidin-1-yl)benzonitrile], the IC50 was < 1 µM.

For the compound `CC1(C)C(c2cccc(C(F)(F)F)c2)N(c2ccc(Cl)cc2)C(=O)N1c1ccc(Cl)cc1` (stereo not drawn) [Example 6], the IC50 was < 1 µM.

The compound `N#Cc1cccc([C@@]23CCCC[C@@H]2N(c2ccc(Cl)cc2)C(=O)N3c2ccc(Cl)cc2)c1` [Example 14-2, 3-((3aS,7aS)-1,3-bis(4-chlorophenyl)-2-oxooctahydro-3aH-benzo[d]imidazol-3a-yl)benzonitrile] showed an IC50 of 10 to 30 µM.

Turning to `CC1(C)[C@H](c2cccc(Cl)c2)N(c2ccc(Cl)cc2)C(=O)N1c1ccc(Cl)cc1` [Example 8-2, (S)-5-(3-chlorophenyl)-1,3-bis(4-chlorophenyl)-4,4-dimethylimidazolidin-2-one], the IC50 is < 1 µM.

Consider `N#Cc1ccc(N2C(=O)N(c3ccc(Cl)cc3)[C@H](c3cccc(OC(F)(F)F)c3)C23COC3)cc1` [Example 46-1, (R)-4-(7-(4-chlorophenyl)-6-oxo-8-(3-(trifluoromethoxy)phenyl)-2-oxa-5,7-diazaspiro[3.4]octan-5-yl)benzonitrile], for which the IC50 is < 1 µM.

Take `Cc1ccc(N2C(=O)N(c3ccc(C#N)cc3)C(C)(C)[C@H]2c2cccc(C#N)c2)cc1` [Example 54-1, (R)-3-(1-(4-cyanophenyl)-5,5-dimethyl-2-oxo-3-(p-tolyl)imidazolidin-4-yl)benzonitrile]: the IC50 is 10 to 30 µM.

Take `CC1(C)[C@@H](c2cccc(Cl)c2)N(c2ccc(Cl)cc2)C(=O)N1c1ccc(Cl)cc1` [Example 8-1, (R)-5-(3-chlorophenyl)-1,3-bis(4-chlorophenyl)-4,4-dimethylimidazolidin-2-one]: the IC50 lay within 10 to 30 µM.

The values are drawn from patent US20190134005A1 (BioMarin Pharmaceutical Inc., priority 2016, published 2019).
